Patent US7101878B1 (Agouron Pharmaceuticals, Inc., priority 1998, dated 2006)
Read-outs that look alike come from different tables or passages of the source.

Target: T1, human GnRH receptor (Homo sapiens, UniProt P30968)
T1 construct: expressed in transfected cells; host or cells: HEK 293 (hGnRH-R/293, from Dr. Stuart Sealfon)
T1 sequence (P30968 1-328): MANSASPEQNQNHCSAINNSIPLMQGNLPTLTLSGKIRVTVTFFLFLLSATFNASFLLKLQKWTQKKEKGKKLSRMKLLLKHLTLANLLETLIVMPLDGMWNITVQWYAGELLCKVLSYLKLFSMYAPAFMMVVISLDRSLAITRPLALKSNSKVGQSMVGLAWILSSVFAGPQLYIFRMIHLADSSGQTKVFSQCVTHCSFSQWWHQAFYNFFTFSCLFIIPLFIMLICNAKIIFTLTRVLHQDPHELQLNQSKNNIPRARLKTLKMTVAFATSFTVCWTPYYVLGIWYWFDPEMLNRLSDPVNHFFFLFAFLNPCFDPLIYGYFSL
Experiment: Radioligand binding, 125I-GnRH-A displacement, membranes of HEK 293 cells with human GnRH receptor
Settings: for remaining activity at 10 µM / remaining activity at 1 µM: substrate remaining, closer to zero = closer to 100% inhibition; for remaining activity at 10 µM: 10 uM compound, read-out: S%R 10 uM hGnRHR; for remaining activity at 1 µM: 1 uM compound, read-out: S%R 1 uM hGnRHR; for IC50: read-out: hGnRH IC50
Experimental: All compounds were diluted in 1% DMSO (final assay concentration) in binding assay buffer. […] Reactions were terminated by rapid filtration onto 96-well Packard GF/C filters soaked in 0.1% polyethyleneimine. Filters were washed three times with PBS buffer, dried and counted on a Packard Topcount by liquid scintillation counting.
Assay conditions were identical for assessing compound activities at other species. […] IC50 values for control peptides and test compounds were calculated utilizing GraphPad Prism™ software.
Crude compounds were tested using the competitive radioligand binding assay described above.
The reaction mixture was vortexed and incubated for 1 min at room temperature. After one min, the mixture was vortexed and allowed to incubate for an additional minute. 2 ml of 0.5 M acetic acid/1% BSA was added to the reaction tube and the mixture was added to a C18 Sep-Pak cartridge. The cartridge was washed with subsequent washes of 5 ml H2O and 5 ml 0.5M acetic acid and then eluted with 5×1 ml of 60% CH3CN/40% 0.5M acetic acid. The eluate was diluted with 3× volume of HPLC buffer A (0.1% TFA in H2O) and loaded onto a C18 column. The iodinated product was eluted over 20-25 min with a gradient of 25-100% CH3CN containing 0.1% TFA. The radioactive fractions (750 ed/fraction) are collected into clean polypropylene tubes containing 100 μl of 10% BSA. Fractions were assessed for biological activity by radioligand binding.
S%R is the substrate remaining.

[1] = 1 uM, read-out: % Inhib. @ 1 uM hGnRH
[2] = 1 h, repeat of % Inhib. at 1 uM, read-out: Repeats @ 1 uM hGnRH

| Compound | inhibition at 1 µM [1] | inhibition at 1 µM [2] | other results |
| --- | --- | --- | --- |
| COc1ccc(NC(=O)c2ccc(Cc3cc4c(cc3C)C(C)(C)CCC4(C)C)o2)c(Oc2ccc(Cl)cc2)n1 [Compound 391] | – | – | remaining activity at 10 µM (1 h): 48% |
| Cc1ccc(CNC(=O)c2ccc(Cc3cc4c(cc3C)C(C)(C)CCC4(C)C)o2)cc1C [drawing 1191] | 77% | 79% | – |
| Cc1cc2c(cc1Cc1ccc(C(=O)NCc3ccc(-c4csnn4)cc3)o1)C(C)(C)CCC2(C)C [drawing 1013] | 87% | 92% | – |
| Cc1ccccc1CNC(=O)c1ccc(Cc2cc3c(cc2C)C(C)(C)CCC3(C)C)o1 [Compound 413] | – | – | remaining activity at 1 µM (1 h): 16% |
| Cc1cc2c(cc1Cc1ccc(C(=O)NC(C)c3ccccc3)o1)C(C)(C)CCC2(C)C (centres unmarked) [drawing 1138] | 53% | 58% | – |
| Cc1cc2c(cc1Cc1ccc(C(=O)NN3C(=O)c4ccccc4C3=O)o1)C(C)(C)CCC2(C)C | – | – | inhibition at 10 µM (repeat, read-out: Repeats @ 10 uM hGnRH (% inhib.)): -20%; inhibition at 10 µM (read-out: % inhib. @ 10 uM hGnRH): -15% |
| Cc1cc2c(cc1Cc1ccc(C(=O)Nc3ccccc3C(=O)NC3CC45CCN4CCC35)o1)C(C)(C)CCC2(C)C (centres unmarked) [Compound 349] | – | – | remaining activity at 10 µM (1 h): 47% |
| Cc1cc2c(cc1Cc1ccc(C(=O)NCc3c(CO)cnc(C)c3O)o1)C(C)(C)CCC2(C)C | -2% | 6% | – |
| Cc1cc2c(cc1Cc1ccc(C(=O)NC3c4ccccc4CC3O)o1)C(C)(C)CCC2(C)C (centres unmarked) | -11% | -29% | – |
| Cc1cc2c(cc1Cc1ccc(C(=O)NC(CCO)c3ccccc3)o1)C(C)(C)CCC2(C)C (centres unmarked) | 17% | 23% | – |
| CC(=O)C1CCN(C(=O)c2ccc(Cc3cc4c(cc3C)C(C)(C)CCC4(C)C)o2)CC1 | 59% | 66% | – |
| CCOc1ccccc1CNC(=O)c1ccc(Cc2cc3c(cc2C)C(C)(C)CCC3(C)C)o1 [Compound 412] | – | – | remaining activity at 1 µM (1 h): 49% |
| Cc1cc2c(cc1Cc1ccc(C(=O)N3CCN(c4cccc(C(F)(F)F)c4)CC3)o1)C(C)(C)CCC2(C)C | -25% | 3% | – |
| Cc1cc(NCc2cccc(CNC(=O)c3ccc(Cc4cc5c(cc4C)C(C)(C)CCC5(C)C)o3)c2)nc(N)n1 [Compound 144] | – | – | IC50: 230 nM |
| Cc1cc2c(cc1Cc1ccc(C(=O)N3CCN(c4ncccc4C(F)(F)F)CC3)o1)C(C)(C)CCC2(C)C | -16% | -29% | – |
| CCOC(=O)N1CCC(NC(=O)c2ccc(Cc3cc4c(cc3C)C(C)(C)CCC4(C)C)o2)CC1 | 15% | 16% | – |
| Cc1cc2c(cc1Cc1ccc(C(=O)N3CCN(c4cccc(O)c4)CC3)o1)C(C)(C)CCC2(C)C | -1% | -3% | – |
| CCN(CC)CCOC(=O)c1ccc(NC(=O)c2ccc(Cc3cc4c(cc3C)C(C)(C)CCC4(C)C)o2)cc1 [Compound 135] | – | – | IC50: 1440 nM |
| COc1cc(NC(=O)c2ccc(Cc3cc4c(cc3C)C(C)(C)CCC4(C)C)o2)cc(OC)c1 [Compound 179] | – | – | IC50: 190 nM |
| Cc1cc2c(cc1Cc1ccc(C(=O)NCC(c3ccccc3)c3ccccc3)o1)C(C)(C)CCC2(C)C | -21% | -26% | – |
| COc1cccc(OC)c1NC(=O)c1ccc(Cc2cc3c(cc2C)C(C)(C)CCC3(C)C)s1 [Compound 146] | – | – | IC50: > 10000 nM |
| Cc1cc2c(cc1Cc1ccc(C(=O)NCc3c(Cl)cccc3Oc3ccccc3)o1)C(C)(C)CCC2(C)C | -10% | -15% | – |
| Cc1cc2c(cc1Cc1ccc(C(=O)N(C)C(C)Cc3ccccc3)o1)C(C)(C)CCC2(C)C (centres unmarked) | 15% | 17% | – |
| Cc1cc2c(cc1Cc1ccc(C(=O)Nc3nc(Cl)c4nc[nH]c4n3)o1)C(C)(C)CCC2(C)C [Compound 353] | – | – | remaining activity at 10 µM (1 h): -4% |
| COc1cc(OC)c(NC(=O)c2ccc(Cc3cc(OC)c(O)cc3OC)o2)c(OC)c1 [Compound 227] | – | – | IC50: > 10000 nM |
| Cc1cc2c(cc1Cc1ccc(C(=O)N(CCO)Cc3ccccc3)o1)C(C)(C)CCC2(C)C | -10% | -5% | – |
| CNCCCNC(=O)c1ccc(Cc2cc3c(cc2C)C(C)(C)CCC3(C)C)o1 [drawing 1027] | -22% | -25% | – |
